According to ChEMBL document CHEMBL3272271, “Folate antagonists. 13. 2,4-Diamino-6-](alpha,alpha,alpha-trifluoro-m-tolyl)thio]quinazoline and related 2,4-diamino-6-[(phenyl- and naphthyl)thio]quinazolines, a unique class of antimetabolites with extraordinary antimalarial and antibacterial effects” (J Med Chem, 1978):
The source made the active and inactive calls. No cut-off for these calls is given here.

Experiments:
[1] = test system: Gallus gallus; experiment: Toxicity in trophozoite-induced Plasmodium gallinaceum infected white leghorn chicken assessed as mortality at 120 mg/kg, sc administered 72 hrs after infection measured after 48 hrs; format: organism-based; set-up: dose 120 mg/kg, route subcutaneous; conditions: in vivo
[2] = test system: Plasmodium gallinaceum; experiment: Antimalarial activity against trophozoite-induced Plasmodium gallinaceum infected in white leghorn chicken assessed as increase in mean survival days of host at 60 mg/kg, sc administered 72 hrs after infection relative to control; format: functional; conditions: route subcutaneous
[3] = test system: Plasmodium gallinaceum; experiment: Antimalarial activity against trophozoite-induced Plasmodium gallinaceum infected in white leghorn chicken assessed as disease cure from parasite infection at 160 mg/kg, sc administered 72 hrs after infection; format: functional, organism-based; set-up: dose 160 mg/kg
[4] = test system: Plasmodium berghei; experiment: Antimalarial activity against Plasmodium berghei infected in mouse assessed as increase in mean survival days of host at 40 mg/kg, sc administered 72 hrs after infection relative to control; format: functional; conditions: route subcutaneous
[5] = test system: Gallus gallus; experiment: Toxicity in sporozoite-induced Plasmodium gallinaceum infected white leghorn chicken assessed as mortality at 60 mg/kg, sc administered 72 hrs after infection measured up to 6 days; format: organism-based; set-up: dose 60 mg/kg, route subcutaneous; conditions: in vivo
[6] = test system: Plasmodium berghei; experiment: Antimalarial activity against trophozoite-induced Plasmodium berghei infected in mouse assessed as daily dose required to suppression of 90% parasite infection administered with diet for 6 days; format: functional
[7] = test system: Plasmodium berghei; experiment: Antimalarial activity against Plasmodium berghei infected in mouse assessed as increase in mean survival days of host at 10 mg/kg, sc administered 72 hrs after infection relative to control; format: functional; conditions: route subcutaneous
[8] = test system: Plasmodium gallinaceum; experiment: Antimalarial activity against trophozoite-induced Plasmodium gallinaceum infected in white leghorn chicken assessed as disease cure from parasite infection at 60 mg/kg, sc administered 72 hrs after infection; format: functional, organism-based; set-up: dose 60 mg/kg
[9] = test system: Plasmodium berghei; experiment: Ratio of quinine hydrochloride SD90 to compound SD90 for trophozoite-induced Plasmodium berghei infected in mouse assessed as daily dose required to suppression of 90% parasite infection administered with diet for 6 days; format: functional
[10] = test system: Plasmodium berghei; experiment: Antimalarial activity against Plasmodium berghei infected in mouse assessed as increase in mean survival days of host at 20 mg/kg, sc administered 72 hrs after infection relative to control; format: functional; conditions: route subcutaneous
[11] = test system: Plasmodium berghei; experiment: Antimalarial activity against Plasmodium berghei infected in mouse assessed as increase in mean survival days of host at 80 mg/kg, sc administered 72 hrs after infection relative to control; format: functional; conditions: route subcutaneous
[12] = test system: Gallus gallus; experiment: Toxicity in sporozoite-induced Plasmodium gallinaceum infected white leghorn chicken assessed as mortality at 240 mg/kg, sc administered 72 hrs after infection measured up to 6 days; format: organism-based; set-up: dose 240 mg/kg, route subcutaneous; conditions: in vivo
[13] = test system: Plasmodium gallinaceum; experiment: Antimalarial activity against sporozoite-induced Plasmodium gallinaceum infected in white leghorn chicken assessed as increase in mean survival days of host at 60 mg/kg, sc administered 72 hrs after infection relative to control; format: functional; conditions: route subcutaneous
[14] = test system: Gallus gallus; experiment: Toxicity in sporozoite-induced Plasmodium gallinaceum infected white leghorn chicken assessed as mortality at 480 mg/kg, sc administered 72 hrs after infection measured up to 6 days; format: organism-based; set-up: dose 480 mg/kg, route subcutaneous; conditions: in vivo
[15] = test system: Plasmodium gallinaceum; experiment: Antimalarial activity against trophozoite-induced Plasmodium gallinaceum infected in white leghorn chicken assessed as increase in mean survival days of host at 30 mg/kg, sc administered 72 hrs after infection relative to control; format: functional; conditions: route subcutaneous
[16] = test system: Plasmodium berghei; experiment: Antimalarial activity against Plasmodium berghei infected in mouse assessed as disease cure from parasite infection at 320 mg/kg, sc administered 72 hrs after infection; format: functional, organism-based; set-up: dose 320 mg/kg
[17] = test system: Plasmodium gallinaceum; experiment: Antimalarial activity against sporozoite-induced Plasmodium gallinaceum infected in white leghorn chicken assessed as increase in mean survival days of host at 15 mg/kg, sc administered 72 hrs after infection relative to control; format: functional; conditions: route subcutaneous
[18] = test system: Plasmodium gallinaceum; experiment: Antimalarial activity against trophozoite-induced Plasmodium gallinaceum infected in white leghorn chicken assessed as disease cure from parasite infection at 120 mg/kg, sc administered 72 hrs after infection; format: functional, organism-based; set-up: dose 120 mg/kg
[19] = test system: Plasmodium berghei; experiment: Antimalarial activity against Plasmodium berghei infected in mouse assessed as disease cure from parasite infection at 80 mg/kg, sc administered 72 hrs after infection; format: functional, organism-based; set-up: dose 80 mg/kg
[20] = test system: Plasmodium gallinaceum; experiment: Antimalarial activity against trophozoite-induced Plasmodium gallinaceum infected in white leghorn chicken assessed as disease cure from parasite infection at 30 mg/kg, sc administered 72 hrs after infection; format: functional, organism-based; set-up: dose 30 mg/kg
[21] = test system: Plasmodium gallinaceum; experiment: Antimalarial activity against sporozoite-induced Plasmodium gallinaceum infected in white leghorn chicken assessed as increase in mean survival days of host at 30 mg/kg, sc administered 72 hrs after infection relative to control; format: functional; conditions: route subcutaneous
[22] = test system: Plasmodium berghei; experiment: Antimalarial activity against DDS-resistant Plasmodium berghei assessed as drug resistance relative to control; format: functional
[23] = test system: Plasmodium berghei; experiment: Antimalarial activity against Plasmodium berghei infected in mouse assessed as disease cure from parasite infection at 40 mg/kg, sc administered 72 hrs after infection; format: functional, organism-based; set-up: dose 40 mg/kg
[24] = test system: Mus musculus; experiment: Toxicity in Plasmodium berghei infected mouse assessed as mortality at 320 mg/kg, sc administered 72 hrs after infection measured after 2 to 5 days; format: organism-based; set-up: dose 320 mg/kg, route subcutaneous; conditions: in vivo
[25] = test system: Plasmodium berghei; experiment: Antimalarial activity against Plasmodium berghei infected in mouse assessed as disease cure from parasite infection at 160 mg/kg, sc administered 72 hrs after infection; format: functional, organism-based; set-up: dose 160 mg/kg
[26] = test system: Gallus gallus; experiment: Toxicity in sporozoite-induced Plasmodium gallinaceum infected white leghorn chicken assessed as mortality at 120 mg/kg, sc administered 72 hrs after infection measured up to 6 days; format: organism-based; set-up: dose 120 mg/kg, route subcutaneous; conditions: in vivo
[27] = test system: Mus musculus; experiment: Toxicity in Plasmodium berghei infected mouse assessed as mortality at 640 mg/kg, sc administered 72 hrs after infection measured after 2 to 5 days; format: organism-based; set-up: dose 640 mg/kg, route subcutaneous; conditions: in vivo

CC1(C)N=C(N)N=C(N)N1c1ccc(Cl)cc1.Cl [CHLORCYCLOGUANIL HYDROCHLORIDE]
Activity [1]: Toxic | MST [2]: 15.1 days | Activity [3]: Active | MST [4]: 13.4 days | Activity [5]: Toxic | SD90 [6]: 2.1 mg/kg/day | MST [7]: 4.9 days | Activity [8]: Active | Ratio [9]: 35 | MST [10]: 7.9 days | MST [11]: 21.6 days | Activity [12]: Toxic | MST [13]: 0 days | Activity [14]: Toxic | MST [15]: 11.7 days | Activity [16]: Active | MST [17]: 0 days | Activity [18]: Active | Activity [19]: Active | Activity [20]: Active | MST [21]: 2.3 days | fold change (FC) [22]: <2 | Activity [23]: Active | Activity [24]: Toxic | Activity [25]: Active | Activity [26]: Toxic | Activity [27]: Toxic
